Data published in ChEMBL document CHEMBL1201862, “PubChem BioAssay data set” (2004).
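Interpolation was linear, between the two tested concentrations surrounding the appropriate level; five concentrations were tested over 48 hours in 96-well plates. GI50 is the concentration that inhibits growth by half.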 Calls of active or inactive are those of the source. Cut-off read from the data, not from the text of the source: active = GI50 up to about 1.1 µM and inactive = higher.

Columns and labels:
Experiment in all cases: DTP human tumour cell line panel, 48 h
HCT-15 = test system: HCT-15
HCC 2998 = test system: HCC 2998
HOP-62 = test system: HOP-62
NCI-H522 = test system: NCI-H522
UO-31 = test system: UO-31
NCI-H23 = test system: NCI-H23
NCI-H226 = test system: NCI-H226
UACC-62 = test system: UACC-62
M19-MEL = test system: M19-MEL
HOP-18 = test system: HOP-18
K562 = test system: K562
OVCAR-8 = test system: OVCAR-8
M14 = test system: M14
OVCAR-3 = test system: OVCAR-3
SK-OV-3 = test system: SK-OV-3
U-251 = test system: U-251
KM-20L2 = test system: KM-20L2
SK-MEL-28 = test system: SK-MEL-28
EKVX = test system: EKVX
DMS-114 = test system: DMS-114
MOLT-4 = test system: MOLT-4
SNB-75 = test system: SNB-75
SK-MEL-5 = test system: SK-MEL-5
NCI-H460 = test system: NCI-H460
KM12 = test system: KM12
HOP-92 = test system: HOP-92
SNB-78 = test system: SNB-78
OVCAR-5 = test system: OVCAR-5
LXFL 529 = test system: LXFL 529
TK-10 = test system: TK-10
SNB-19 = test system: SNB-19
SF-295 = test system: SF-295
786-0 = test system: 786-0
UACC-257 = test system: UACC-257
OVCAR-4 = test system: OVCAR-4
HT-29 = test system: HT-29
ACHN = test system: ACHN
DLD-1 = test system: DLD-1
COLO 205 = test system: COLO 205
CCRF-CEM = test system: CCRF-CEM
DMS-273 = test system: DMS-273
LOX IMVI = test system: LOX IMVI
RPMI-8226 = test system: RPMI-8226
HL-60 = test system: HL-60
SW-620 = test system: SW-620
Malme-3M = test system: Malme-3M
A498 = test system: A498
RXF 393 = test system: RXF 393
CAKI-1 = test system: CAKI-1
IGROV-1 = test system: IGROV-1
SK-MEL-2 = test system: SK-MEL-2
A549 = test system: A549
SF-268 = test system: SF-268
HCT-116 = test system: HCT-116
RXF 631 = test system: RXF 631
SN12C = test system: SN12C
SF-539 = test system: SF-539
NCI/ADR-RES = test system: NCI/ADR-RES
SR = test system: SR
T47D = test system: T47D
PC-3 = test system: PC-3
MDA-MB-231 = test system: MDA-MB-231
DU-145 = test system: DU-145
MDA-N = test system: MDA-N
Hs-578T = test system: Hs-578T
MDA-MB-435 = test system: MDA-MB-435
XF498 = test system: XF498
BT-549 = test system: BT-549
MCF7 = test system: MCF7

Measured: GI50

Cc1ccccc1/C=N/C12CC3CC(CC(C3)C1)C2
inactive: HCC 2998 > 100 µM | HOP-62 > 100 µM | NCI-H522 > 100 µM | UO-31 > 100 µM | NCI-H23 > 100 µM | NCI-H226 > 100 µM | UACC-62 > 100 µM | M19-MEL > 100 µM | HOP-18 > 100 µM | K562 > 100 µM | OVCAR-8 > 100 µM | M14 > 100 µM | OVCAR-3 > 100 µM | SK-OV-3 > 100 µM | U-251 > 100 µM | KM-20L2 > 100 µM | SK-MEL-28 > 100 µM | EKVX > 100 µM | DMS-114 > 100 µM | MOLT-4 > 100 µM | SNB-75 > 100 µM | SK-MEL-5 > 100 µM | NCI-H460 > 100 µM | KM12 > 100 µM | HOP-92 > 100 µM | SNB-78 > 100 µM | OVCAR-5 > 100 µM | LXFL 529 > 100 µM | TK-10 > 100 µM | SNB-19 > 100 µM | SF-295 49.3 µM | 786-0 > 100 µM | UACC-257 > 100 µM | OVCAR-4 > 100 µM | HT-29 > 100 µM | ACHN > 100 µM | DLD-1 > 100 µM | COLO 205 > 100 µM | CCRF-CEM > 100 µM | DMS-273 > 100 µM | LOX IMVI > 100 µM | RPMI-8226 > 100 µM | HL-60 > 100 µM | SW-620 > 100 µM | Malme-3M > 100 µM | A498 > 100 µM | RXF 393 > 100 µM | CAKI-1 > 100 µM | IGROV-1 > 100 µM | SK-MEL-2 > 100 µM | A549 > 100 µM | SF-268 > 100 µM | HCT-116 > 100 µM | RXF 631 > 100 µM | SN12C > 100 µM | SF-539 > 100 µM
> 100 µM: HCT-15

COc1ccc(/C(Cl)=C(\C=O)c2cc(OC)c(OC)c(OC)c2)cc1OC
inactive: HCC 2998 26.4 µM | HOP-62 29.5 µM | NCI-H522 7.38 µM | UO-31 16.8 µM | NCI-H23 12.3 µM | NCI-H226 19.8 µM | UACC-62 15.7 µM | M19-MEL 35.2 µM | HOP-18 12.2 µM | K562 25.7 µM | OVCAR-8 17.8 µM | M14 56.4 µM | OVCAR-3 27.7 µM | SK-OV-3 72.4 µM | U-251 23 µM | KM-20L2 22.8 µM | SK-MEL-28 61.8 µM | EKVX 24.7 µM | DMS-114 12.1 µM | MOLT-4 22.4 µM | SNB-75 10.8 µM | SK-MEL-5 14.8 µM | NCI-H460 18.5 µM | KM12 24.8 µM | HOP-92 49 µM | NCI/ADR-RES 13.2 µM | SNB-78 16.8 µM | OVCAR-5 67.8 µM | SR > 100 µM | LXFL 529 11.2 µM | TK-10 56.6 µM | T47D 20.4 µM | SNB-19 > 52.6 µM | SF-295 34.1 µM | 786-0 34.4 µM | UACC-257 62.2 µM | OVCAR-4 24.3 µM | HT-29 12.8 µM | PC-3 55.1 µM | ACHN 26.3 µM | MDA-MB-231 68.5 µM | COLO 205 27.5 µM | CCRF-CEM 26.1 µM | DMS-273 35.8 µM | DU-145 44.7 µM | LOX IMVI 19.7 µM | RPMI-8226 10.8 µM | HL-60 5.78 µM | SW-620 > 61.2 µM | Malme-3M 15 µM | MDA-N 12.3 µM | A498 37.9 µM | RXF 393 > 100 µM | CAKI-1 22.9 µM | IGROV-1 44.5 µM | SK-MEL-2 19.6 µM | A549 33.3 µM | SF-268 23.8 µM | HCT-116 36.6 µM | RXF 631 19.7 µM | SN12C 23.2 µM | Hs-578T 27.5 µM | MDA-MB-435 48.4 µM | SF-539 26.2 µM
19.8 µM: HCT-15

COC(=O)C1(C)CCc2c(OC)ccc(OC)c2C1=O (configuration not stated)
> 100 µM: HCT-15
inactive: HCC 2998 > 100 µM | HOP-62 > 100 µM | NCI-H522 > 100 µM | UO-31 76.2 µM | NCI-H23 > 100 µM | NCI-H226 > 100 µM | UACC-62 > 100 µM | M19-MEL > 100 µM | K562 > 100 µM | OVCAR-8 > 100 µM | M14 > 100 µM | OVCAR-3 > 100 µM | SK-OV-3 > 100 µM | U-251 > 100 µM | SK-MEL-28 > 100 µM | XF498 > 100 µM | EKVX > 100 µM | DMS-114 > 100 µM | MOLT-4 > 100 µM | SNB-75 29.8 µM | SK-MEL-5 > 100 µM | KM12 > 100 µM | SNB-78 > 100 µM | OVCAR-5 > 100 µM | SR > 100 µM | LXFL 529 > 100 µM | TK-10 > 100 µM | SNB-19 > 100 µM | SF-295 > 100 µM | 786-0 > 100 µM | UACC-257 > 100 µM | OVCAR-4 > 100 µM | ACHN > 100 µM | DLD-1 > 100 µM | COLO 205 > 100 µM | CCRF-CEM > 100 µM | DMS-273 > 100 µM | LOX IMVI > 100 µM | RPMI-8226 > 100 µM | HL-60 > 100 µM | SW-620 > 100 µM | Malme-3M > 100 µM | RXF 393 > 100 µM | IGROV-1 > 100 µM | SK-MEL-2 > 100 µM | A549 > 100 µM | SF-268 > 100 µM | HCT-116 > 100 µM | RXF 631 > 100 µM | SN12C > 100 µM | SF-539 > 100 µM

CC(=O)[C@@]1(O)CC[C@H]2[C@@H]3C[C@H](C)C4=CC(=O)C=C[C@]4(C)[C@@]3(F)[C@@H](O)C[C@@]21C [FLUOROMETHOLONE]
inactive: HCC 2998 > 100 µM | HOP-62 > 100 µM | NCI-H522 > 93.3 µM | UO-31 > 100 µM | NCI-H23 > 100 µM | NCI-H226 > 11.3 µM | UACC-62 > 100 µM | M19-MEL > 100 µM | K562 > 100 µM | OVCAR-8 > 69.7 µM | M14 > 100 µM | OVCAR-3 > 100 µM | SK-OV-3 > 100 µM | U-251 > 100 µM | KM-20L2 > 100 µM | SK-MEL-28 > 100 µM | XF498 > 53.5 µM | EKVX > 67.5 µM | DMS-114 > 100 µM | MOLT-4 > 100 µM | SNB-75 69.5 µM | SK-MEL-5 > 100 µM | NCI-H460 > 100 µM | KM12 > 100 µM | HOP-92 > 100 µM | NCI/ADR-RES > 100 µM | SNB-78 > 100 µM | OVCAR-5 > 38.5 µM | SR > 100 µM | LXFL 529 > 100 µM | TK-10 > 100 µM | T47D > 69.8 µM | SNB-19 > 100 µM | SF-295 > 100 µM | 786-0 > 100 µM | BT-549 > 100 µM | UACC-257 > 100 µM | OVCAR-4 > 100 µM | HT-29 > 100 µM | PC-3 > 59.3 µM | ACHN > 100 µM | MDA-MB-231 > 91 µM | DLD-1 > 100 µM | COLO 205 > 100 µM | CCRF-CEM 1.8 µM | DMS-273 > 100 µM | DU-145 > 51.4 µM | LOX IMVI > 100 µM | RPMI-8226 > 14.6 µM | HL-60 > 100 µM | SW-620 > 100 µM | Malme-3M > 100 µM | MDA-N > 100 µM | A498 > 100 µM | RXF 393 > 91.4 µM | CAKI-1 > 100 µM | IGROV-1 > 100 µM | SK-MEL-2 > 100 µM | A549 > 100 µM | MCF7 > 100 µM | SF-268 > 95.1 µM | HCT-116 > 100 µM | RXF 631 > 100 µM | SN12C > 100 µM | Hs-578T > 100 µM | MDA-MB-435 > 100 µM | SF-539 > 87.3 µM
> 100 µM: HCT-15
